The source of these data is ChEMBL document CHEMBL2331429, “Purgin II, a resin glycoside ester-type dimer and inhibitor of multidrug efflux pumps from Ipomoea purga” (J Nat Prod, 2013).

What is called IC50 is the concentration at which inhibition is half-maximal. A low value points to inhibition by little substance.

The source made the active and inactive calls. No cut-off for these calls is given here. Some results are limits rather than exact numbers.

In series [1] the target is T1, ATP-dependent translocase ABCB1 (Homo sapiens, UniProt P08183). The series can be described thus: Inhibition of p-glycoprotein in human vinblastine-resistant MCF7 cells cultured in medium containing vinblastine assessed as potentiation of vinblastine-induced cytotoxicity at 25 ug/ml after 72 hrs by SRB assay. The series is classed as cell-based. The following applies: mcf7, 72 h. On the technique in general: In SRB staining, fixed cells bind dye roughly in proportion to their protein.
T1 sequence (P08183 whole entry): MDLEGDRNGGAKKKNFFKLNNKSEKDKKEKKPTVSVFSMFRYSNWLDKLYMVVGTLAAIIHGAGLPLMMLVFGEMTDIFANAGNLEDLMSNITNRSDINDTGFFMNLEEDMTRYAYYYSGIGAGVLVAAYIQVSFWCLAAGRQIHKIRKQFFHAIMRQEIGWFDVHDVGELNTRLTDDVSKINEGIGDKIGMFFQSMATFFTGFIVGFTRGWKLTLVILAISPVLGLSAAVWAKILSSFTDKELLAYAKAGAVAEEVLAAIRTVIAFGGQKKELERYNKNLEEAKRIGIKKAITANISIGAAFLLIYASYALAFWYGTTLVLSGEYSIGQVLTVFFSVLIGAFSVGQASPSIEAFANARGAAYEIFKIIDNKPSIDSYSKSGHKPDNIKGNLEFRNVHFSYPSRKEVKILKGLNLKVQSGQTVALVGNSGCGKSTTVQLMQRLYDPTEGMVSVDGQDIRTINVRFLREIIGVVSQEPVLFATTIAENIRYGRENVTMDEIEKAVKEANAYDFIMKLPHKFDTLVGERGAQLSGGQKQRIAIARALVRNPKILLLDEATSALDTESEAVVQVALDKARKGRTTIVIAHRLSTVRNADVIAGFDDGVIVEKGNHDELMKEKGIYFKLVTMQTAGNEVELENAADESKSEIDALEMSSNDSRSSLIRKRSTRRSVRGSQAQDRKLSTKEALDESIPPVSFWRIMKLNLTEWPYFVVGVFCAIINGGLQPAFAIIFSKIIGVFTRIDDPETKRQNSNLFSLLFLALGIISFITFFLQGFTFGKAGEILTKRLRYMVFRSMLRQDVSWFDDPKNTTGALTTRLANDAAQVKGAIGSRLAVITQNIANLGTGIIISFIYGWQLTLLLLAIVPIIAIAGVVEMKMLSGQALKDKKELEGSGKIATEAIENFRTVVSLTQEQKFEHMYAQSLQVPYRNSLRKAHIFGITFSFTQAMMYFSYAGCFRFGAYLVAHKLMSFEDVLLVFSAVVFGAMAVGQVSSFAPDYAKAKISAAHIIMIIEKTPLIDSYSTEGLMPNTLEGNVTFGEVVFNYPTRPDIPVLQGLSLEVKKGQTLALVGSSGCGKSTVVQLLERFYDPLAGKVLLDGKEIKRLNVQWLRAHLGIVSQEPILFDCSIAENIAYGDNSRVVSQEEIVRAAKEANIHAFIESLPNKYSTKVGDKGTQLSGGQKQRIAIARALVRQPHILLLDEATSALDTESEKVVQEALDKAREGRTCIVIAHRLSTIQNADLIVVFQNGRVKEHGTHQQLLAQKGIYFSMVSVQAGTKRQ

In series [2] the test system is MCF7. The series is described as follows: Cytotoxicity against human MCF7 cells after 72 hrs by SRB assay. The series is classed as cell-based. The following applies: MCF7, 72 h.
The target of series [3] is T1, ATP-dependent translocase ABCB1. The series can be described thus: Inhibition of p-glycoprotein in human vinblastine-resistant MCF7 cells assessed as increase of rhodamine-123 accumulation at 5 to 25 ug/ml measured up to 50 mins. The class given is cell-based. The following applies: mcf7, 50 min.
Series [4] relates to MCF7. The series can be described thus: Cytotoxicity against human vinblastine-resistant MCF7 cells after 72 hrs by SRB assay. To be noted: MCF7, 72 h. The series is classed as cell-based.
For series [5], the system named is MCF7. The series is described as follows: Reversible inhibition of p-glycoprotein in human vinblastine-resistant MCF7 cells assessed as increase of rhodamine-123 accumulation at 5 to 25 ug/ml measured up to 50 mins. The series is classed as cell-based.
In series [6] the target is T1, ATP-dependent translocase ABCB1. The series can be described thus: Inhibition of p-glycoprotein in human vinblastine-resistant MCF7 cells cultured in vinblastine-free medium assessed as potentiation of vinblastine-induced cytotoxicity at 25 ug/ml after 72 hrs by SRB assay. The series is classed as cell-based. The following applies: mcf7, 72 h.
In series [7] the test system is MCF7. The series is described as follows: Potentiation of vinblastine-induced cytotoxicity in human MCF7 cells at 25 ug/ml after 72 hrs by SRB assay. The series is classed as functional.
The target of series [8] is T1, ATP-dependent translocase ABCB1. The series can be described thus: Inhibition of p-glycoprotein in human vinblastine-resistant MCF7 cells cultured in medium containing vinblastine assessed as potentiation of vinblastine-induced cytotoxicity at 5 ug/ml after 72 hrs by SRB assay. The following applies: mcf7, 72 h. The class given is cell-based.
Series [9] has the same target. The series is described as follows: Inhibition of p-glycoprotein in human vinblastine-resistant MCF7 cells cultured in vinblastine-free medium assessed as potentiation of vinblastine-induced cytotoxicity at 5 ug/ml after 72 hrs by SRB assay. The series is classed as cell-based. To be noted: mcf7, 72 h.
The target is the same in series [10]. The series is described as follows: Inhibition of p-glycoprotein in human vinblastine-resistant MCF7 cells assessed as increase of rhodamine-123 accumulation at 5 ug/ml measured up to 50 mins. The class given is cell-based. To be noted: mcf7, 50 min.

For the compound `CCCCCCCCCC(=O)O[C@H]1[C@H](O[C@@H]2[C@@H](O)[C@@H](O)[C@H](O[C@H]3[C@H](O[C@@H](CCCCC)CCCCCCCCCC(=O)O[C@H]4[C@H](O)[C@@H](O)[C@H](O[C@@H]5[C@@H](O[C@@H]6O[C@@H](C)[C@H](OC(=O)[C@@H](C)CC)[C@@H](OC(=O)/C=C/c7ccccc7)[C@H]6O)[C@H](C)O[C@@H](O[C@@H]6[C@@H](O)[C@H]7OC(=O)CCCCCCCCC[C@H](CCCCC)O[C@@H]8O[C@H](CO)[C@@H](O)[C@H](O)[C@H]8O[C@@H]7O[C@H]6C)[C@@H]5OC(=O)CCCCCCCCC)O[C@@H]4CO)O[C@H](CO)[C@@H](O)[C@@H]3O)O[C@H]2C)O[C@@H](C)[C@H](O[C@@H]2O[C@@H](C)[C@H](OC(=O)[C@@H](C)CC)[C@@H](OC(=O)/C=C/c3ccccc3)[C@H]2O)[C@H]1O[C@@H]1O[C@H](CO)[C@@H](O)[C@H](O)[C@H]1O` [PURGIN II], the “fold change (FC)” value in series [1] was over 1687.5; in series [6], over 2140.6; in the series with MCF7 [7], over 73.4. Also, the half-inhibitory concentration (IC50) in the series with MCF7 [2] and in the series on MCF7 [4] was over 25 µg/mL each time. For the same compound, the “inhibition (INH)” value in series [3] is recorded as “Active”. For the same compound, the inhibition result with MCF7 [5] is “Active”.
Consider `CCCCCCCCCC(=O)O[C@H]1[C@H](O[C@@H]2[C@@H](O)[C@H]3OC(=O)CCCCCCCCC[C@H](CCCCC)O[C@@H]4O[C@H](C)[C@H](O)[C@H](O)[C@H]4O[C@@H]3O[C@H]2C)O[C@@H](C)[C@H](O[C@@H]2O[C@@H](C)[C@H](OC(=O)CCCCC)[C@@H](OC(=O)/C=C/c3ccccc3)[C@H]2O)[C@H]1O[C@@H]1O[C@H](CO)[C@@H](O)[C@H](O)[C@H]1O` [PURGINOSIDE II], for which the “fold change (FC)” value is listed as 1.2 in series [1], 1.4 in [6] and 1.4 with MCF7 [7]. Moreover, the IC50 in the series on MCF7 [2] and in the series on MCF7 [4] was over 25 µg/mL throughout.
Consider `CCCCCCCCCC(=O)O[C@H]1[C@H](O[C@@H]2[C@@H](O)[C@H]3OC(=O)CCCCCCCCC[C@H](CCCCC)O[C@@H]4O[C@H](C)[C@H](O)[C@H](O)[C@H]4O[C@@H]3O[C@H]2C)O[C@@H](C)[C@H](O[C@@H]2O[C@@H](C)[C@H](OC(=O)[C@@H](C)CC)[C@@H](O)[C@H]2OC(=O)/C=C/c2ccccc2)[C@H]1O[C@@H]1O[C@H](CO)[C@@H](O)[C@H](O)[C@H]1O` [PURGINOSIDE I], for which the “fold change (FC)” value in series [1] was determined as 2.8; in [6], 2.9; with MCF7 [7], 0.8. Further, the IC50 with MCF7 [2] and in the series with MCF7 [4] was over 25 µg/mL each time.
`CCCCCCCCCC(=O)O[C@H]1[C@H](O[C@@H]2[C@@H](O)[C@H]3OC(=O)CCCCCCCCC[C@H](CCCCC)O[C@@H]4O[C@H](C)[C@H](O)[C@H](O)[C@H]4O[C@@H]3O[C@H]2C)O[C@@H](C)[C@H](O[C@@H]2O[C@@H](C)[C@H](OC(=O)CCCCC)[C@@H](O)[C@H]2O)[C@H]1O[C@@H]1O[C@H](CO)[C@@H](O)[C@H](O)[C@H]1O` [PURGINOSIDE IV]: the “fold change (FC)” value in series [1] was 3.3; in series [6] it was 3; with MCF7 [7], 2.5. Moreover, the IC50 with MCF7 [2] and in the series with MCF7 [4] was over 25 µg/mL in each case.
Regarding `COC(=O)[C@H]1[C@H]2C[C@@H]3c4[nH]c5cc(OC)ccc5c4CCN3C[C@H]2C[C@@H](OC(=O)c2cc(OC)c(OC)c(OC)c2)[C@@H]1OC` [RESERPINE], the figures for the “fold change (FC)” value in [8] and in series [9] were 29.2 and 4.4, respectively. In addition, the “inhibition (INH)” value in series [10] is listed as “Active”.
`CCCCCCCCCC(=O)O[C@H]1[C@H](O[C@@H]2[C@@H](O)[C@@H](O)[C@H](O[C@H]3[C@H](O[C@@H](CCCCC)CCCCCCCCCC(=O)O[C@H]4[C@H](O)[C@@H](O)[C@H](O[C@@H]5[C@@H](O[C@@H]6O[C@@H](C)[C@H](OC(=O)CCCCC)[C@@H](OC(=O)/C=C/c7ccccc7)[C@H]6O)[C@H](C)O[C@@H](O[C@@H]6[C@@H](O)[C@H]7OC(=O)CCCCCCCCC[C@H](CCCCC)O[C@@H]8O[C@H](CO)[C@@H](O)[C@H](O)[C@H]8O[C@@H]7O[C@H]6C)[C@@H]5OC(=O)CCCCCCCCC)O[C@@H]4CO)O[C@H](CO)[C@@H](O)[C@@H]3O)O[C@H]2C)O[C@@H](C)[C@H](O[C@@H]2O[C@@H](C)[C@H](OC(=O)CCCCC)[C@@H](OC(=O)/C=C/c3ccccc3)[C@H]2O)[C@H]1O[C@@H]1O[C@H](CO)[C@@H](O)[C@H](O)[C@H]1O` [PURGIN III]: the “fold change (FC)” value in [1] came to 6.4; in [6], 6.5; in the series on MCF7 [7] it was 4.7. The half-inhibitory concentration (IC50) in the series with MCF7 [2] and in the series on MCF7 [4] was over 25 µg/mL throughout.
With `CCCCCCCCCCCC(=O)O[C@H]1[C@H](O[C@@H]2[C@@H](O)[C@@H](O)[C@H](O[C@H]3[C@H](O[C@@H](CCCCC)CCCCCCCCCC(=O)O[C@H]4[C@H](O)[C@@H](O)[C@H](O[C@@H]5[C@@H](O[C@@H]6O[C@@H](C)[C@H](OC(=O)[C@@H](C)CC)[C@@H](O)[C@H]6OC(=O)/C=C/c6ccccc6)[C@H](C)O[C@@H](O[C@@H]6[C@@H](O)[C@H]7OC(=O)CCCCCCCCC[C@H](CCCCC)O[C@@H]8O[C@H](C)[C@H](O)[C@H](O)[C@H]8O[C@@H]7O[C@H]6C)[C@@H]5OC(=O)CCCCCCCCCCC)O[C@@H]4CO)O[C@H](C)[C@H](O)[C@@H]3O)O[C@H]2C)O[C@@H](C)[C@H](O[C@@H]2O[C@@H](C)[C@H](OC(=O)[C@@H](C)CC)[C@@H](OC(=O)/C=C/c3ccccc3)[C@H]2O)[C@H]1O[C@@H]1O[C@H](CO)[C@@H](O)[C@H](O)[C@H]1O` [PURGIN I], the “fold change (FC)” value in [1] was 4.7; in series [6] it was 3.8; in the series with MCF7 [7], 2.9. Moreover, the IC50 in the series with MCF7 [2] and in the series on MCF7 [4] was over 25 µg/mL each time.
